In PMC9552116 (Biochemistry and Biophysics Reports, 2022):
Bridge positions count the residues as written; N and C are the ends. Square brackets hold non-standard residues; d marks the D form. Peptide text beside a SMILES is read from it. * marks the point of attachment. Biotin = O=C1N[C@H]2[C@H](CS[C@H]2CCCCC(=O)*)N1; Nle = CCCC[C@H](N)C(=O)O

Key:
human LRP1(CL2)-Fc = human LRP1(CL2)-Fc (Homo sapiens, UniProt Q07954); assay: Cell-free ELISA, binding of biotinylated peptide to captured LRP1; settings: Fig. 3, n = 3
human LRP1(CL3)-Fc = human LRP1(CL3)-Fc (Homo sapiens, UniProt Q07954); assay: as above; settings: Fig. 3, n = 3
human LRP1(CL4)-Fc = human LRP1(CL4)-Fc (Homo sapiens, UniProt Q07954); assay: as above; settings: Supplementary Fig. S1
[1] = tested on: in vitro rat BBB model kit (RBT-24H); assay: BBB permeability in in vitro rat BBB model; type: in vitro ADME; settings: 1 μM input, 30 min, 37 °C, fluorescence, n = 1
LRP1 = settings: read-out: LRP1-binding EC50; ref [18]; cited from earlier work
LRP1(CL2) = settings: ref [18]; cited from earlier work

CCCC[C@H](NC(=O)[C@H](CCC(=O)O)NC(=O)[C@H](C)NC(=O)[C@H](CC(C)C)NC(=O)[C@H](CCCC)NC(=O)[C@H](Cc1ccc(O)cc1)NC(=O)[C@H](CCCCN)NC(=O)[C@H](Cc1ccc(O)cc1)NC(=O)[C@@H](NC(=O)[C@H](CS)NC(=O)[C@@H]1CCCN1C(=O)[C@@H](NC(=O)CNC(=O)[C@H](CCCCNC(=O)CCCC[C@@H]1SC[C@@H]2NC(=O)N[C@@H]21)NC(C)=O)[C@@H](C)O)[C@@H](C)O)C(=O)N[C@@H](CS)C(=O)O [Biotin-KS-487(linear)] (Ac-K(Biotin)GTPCTYKY[Nle]LAE[Nle]C-OH)
binding to LRP1(CL2) (human LRP1(CL2)-Fc): no binding or slight binding
binding to LRP1(CL3) (human LRP1(CL3)-Fc): no binding or slight binding

CCCC[C@@H]1NC(=O)[C@H](CCC(=O)O)NC(=O)[C@H](C)NC(=O)[C@H](CC(C)C)NC(=O)[C@H](CCCC)NC(=O)[C@H](Cc2ccc(O)cc2)NC(=O)[C@H](CCCCN)NC(=O)[C@H](Cc2ccc(O)cc2)NC(=O)[C@H]([C@@H](C)O)NC(=O)[C@@H](NC(=O)[C@@H]2CCCN2C(=O)[C@@H](NC(=O)CNC(=O)[C@H](CCCCNC(=O)CCCC[C@@H]2SC[C@@H]3NC(=O)N[C@@H]32)NC(C)=O)[C@@H](C)O)CSSC[C@@H](C(=O)O)NC1=O [Biotin-KS-487] (Ac-K(Biotin)GTPCTYKY[Nle]LAE[Nle]C-OH; disulfide 5-15)
binding to LRP1(CL2) (human LRP1(CL2)-Fc): no binding or slight binding
binding to LRP1(CL3) (human LRP1(CL3)-Fc): no binding or slight binding

CSCC[C@@H]1NC(=O)[C@H](CCC(=O)O)NC(=O)[C@H](C)NC(=O)[C@H](CC(C)C)NC(=O)[C@H](CCSC)NC(=O)[C@H](Cc2ccc(O)cc2)NC(=O)[C@H](CCCCN)NC(=O)[C@H](Cc2ccc(O)cc2)NC(=O)[C@H]([C@@H](C)O)NC(=O)[C@@H](NC(=O)[C@@H]2CCCN2C(=O)[C@@H](NC(=O)CNC(=O)[C@H](CCCCNC(=O)CCCC[C@@H]2SC[C@@H]3NC(=O)N[C@@H]32)NC(C)=O)[C@@H](C)O)CSSC[C@@H](C(=O)O)NC1=O [Biotin-Pep0] (Ac-K(Biotin)GTPCTYKYMLAEMC-OH; disulfide 5-15; N-terminus and C-terminus assumed)
binding activity to LRP1(CL4) (human LRP1(CL4)-Fc): moderate binding activity

C[C@@H](O)[C@H](NC(=O)CNC(=O)[C@@H](N)CCCCNC(=O)c1ccc2c(c1)C(=O)OC21c2ccc(O)cc2Oc2cc(O)ccc21)C(=O)N[C@@H](Cc1ccccc1)C(=O)N[C@@H](Cc1ccccc1)C(=O)N[C@@H](Cc1ccc(O)cc1)C(=O)NCC(=O)NCC(=O)N[C@@H](CO)C(=O)N[C@@H](CCCNC(=N)N)C(=O)NCC(=O)N[C@@H](CCCCN)C(=O)N[C@@H](CCCNC(=N)N)C(=O)N[C@@H](CC(N)=O)C(=O)N[C@@H](CC(N)=O)C(=O)N[C@@H](Cc1ccccc1)C(=O)N[C@@H](CCCCN)C(=O)N[C@H](C(=O)N[C@@H](CCC(=O)O)C(=O)N[C@@H](CCC(=O)O)C(=O)N[C@@H](Cc1ccc(O)cc1)C(=O)O)[C@@H](C)O [Pep 5FAM-ANG2]
% input crossed to the brain side [1]: below 0.5%

TWPKHFDKHTFYSILKLGKH-OH [Pep L57]
EC50 (LRP1): 45 nM
cross-reactivity to LRP1(CL2) (LRP1(CL2)): cross-reactivity
